These results are taken from PMC3728024, “Antidiabetic and Antioxidant Effects and Phytochemicals of Mulberry Fruit (Morus alba L.) Polyphenol Enhanced Extract” (PLoS ONE, 2013).

Converted amounts (≈) assume the structure as drawn. “And” between values parts separate entries of the source, which are not always exact repeats. Equal entries are not always repeated.

Experiment [1] can be described thus: DPPH radical-scavenging assay of the extracts. The note with it: DPPH used was 2,2-Di(4-tert-octylphenyl)-1-picrylhydrazyl, mean ± SD, n = 3. The method, then: (§1) The DPPH radical-scavenging assay was performed according to a previously described method. All tests were performed in triplicate. Ascorbic acid and gallic acid were used as positive controls.
Experiment [2] is described as follows: DPPH radical-scavenging assay of the isolated compounds. The note with it: mean ± SD, n = 3. The procedure:
as §1
Background: The DPPH test is a chemical assay of radical scavenging.

Experiment [3] in a line: Superoxide anion radical-scavenging assay (NADH/PMS system). The note with it: mean ± SD, n = 3. An excerpt:
Superoxide radical were generated by the NADH/PMS system according to a reported protocol. Gallic acid was used as positive control.

For experiment [4], the system named is STZ-induced diabetic mice. The experiment is described as follows: Fasting blood glucose of STZ-induced diabetic mice. The format is in vivo. Particulars: 300 mg/kg p.o. two times a day, n = 8. The procedure:
The mice were given 5% glucose solution orally in order to stave off the hypoglycemia during the first day after the injection of STZ [24]. In testing the FBG of the mice, a standard protocol developed by the American National Institute of Health was carried out. […] The FBG was measured using the Accu-Check Active Blood Glucose Meter (Roche Diagnostics, Mannheim, Germany). […] Sample suspended in distilled water containing 0.3% CMC-Na was administered p.o. two times a day for 2 weeks. FBG of the diabetic mice was determined on the day 7 and 14 as described before. On the day 14, the mice were sacrificed under diethyl ether anesthesia after the FBG determination. Blood was collected from the ophthalmic vein and allowed to clot at room temperature for 30 min. The serum was separate by centrifuging at 4000 rpm for 10 min with a refrigerated centrifuge. Liver and kidney were excised. Samples were stored at −20°C until used.

In experiment [5] the test system is STZ-induced diabetic mice. The experiment is described as follows: Glycosylated serum protein (GSP) of STZ-induced diabetic mice, NBT colorimetric method. The note with it: 300 mg/kg p.o. two times a day, n = 8. The format is in vivo. The procedure: (§2) Total 32 hyperglycemic mice were divided into four groups according to their FBG (8 mice per group): control (distilled water), MFE 100 (100 mg/kg BW), MFE 200 (200 mg/kg BW), and metformin (300 mg/kg BW). Sample suspended in distilled water containing 0.3% CMC-Na was administered p.o. two times a day for 2 weeks. FBG of the diabetic mice was determined on the day 7 and 14 as described before. On the day 14, the mice were sacrificed under diethyl ether anesthesia after the FBG determination. Blood was collected from the ophthalmic vein and allowed to clot at room temperature for 30 min. The serum was separate by centrifuging at 4000 rpm for 10 min with a refrigerated centrifuge. Liver and kidney were excised. Samples were stored at −20°C until used.
GSP level was measured according to the nitroblue tetrazolium (NBT) colorimetric method using commercial kits purchased from Nanjing Jiancheng Bioengineering Institute (Nanjing, China). This method based on the ability of the ketoamine group of glycated proteins to reduce tetrazolium salt under alkaline conditions. Fructosamine was used as standard.

The subject of experiment [6] is STZ-induced diabetic mice. Nature of the experiment: SOD activity in serum, kidney and liver of STZ-induced diabetic mice. The experiment is classed as in vivo. Particulars: 300 mg/kg, 2 weeks. The method, then:
as §2
(§3) 10% solution of tissue homogenate was prepared as follows. Pieces of liver or kidney were homogenized in 9 volumes (w/v) ice-cold saline and centrifuged at 4000 rpm for 8 min. The supernatants were separated and stored at 4°C for analysis. Protein content of tissue homogenate was determined according to the Bradford method. Bovine serum albumin was used as standard. The superoxide dismutase (SOD), catalase (CAT) and glutathione peroxidase (GSH-Px) activities in liver and kidney tissue, the SOD and CAT activities in serum were determined using the respective commercial kits obtained from Nanjing Jiancheng Bioengineering Institute (Nanjing, China). SOD activity was determined by the nitrite method. SOD activity was expressed as units/mg protein or units/mL serum. The activity of CAT was measured using colorimetric method based on the decomposition of hydrogen peroxide (H2O2) by CAT. The enzyme catalysis was stopped by adding the solution of ammonium molybdate which can react with the rest H2O2 and give a yellow product. The product can be measured at 405 nm by its absorbance. The CAT activities of tissue or serum were presented as units/mg protein or units/mL serum respectively. GSH-Px activity was also measured according to a colorimetric method developed by Sedlak. […]

Experiment [7] has as its system STZ-induced diabetic mice. The experiment is described as follows: CAT activity in serum, kidney and liver of STZ-induced diabetic mice. The format is in vivo. The note with it: 300 mg/kg, 2 weeks. The procedure:
as §2, §3

For experiment [8], the system named is STZ-induced diabetic mice. The experiment is described as follows: GSH-Px activity in kidney and liver of STZ-induced diabetic mice. The format is in vivo. Particulars: 300 mg/kg, 2 weeks. The method, then: as §2, with “Samples were stored at −20°C until used.” left out
10% solution of tissue homogenate was prepared as follows. […] Protein content of tissue homogenate was determined according to the Bradford method. […] The superoxide dismutase (SOD), catalase (CAT) and glutathione peroxidase (GSH-Px) activities in liver and kidney tissue, the SOD and CAT activities in serum were determined using the respective commercial kits obtained from Nanjing Jiancheng Bioengineering Institute (Nanjing, China). SOD activity was determined by the nitrite method. SOD activity was expressed as units/mg protein or units/mL serum. The activity of CAT was measured using colorimetric method based on the decomposition of hydrogen peroxide (H2O2) by CAT. […]

With `O=C(O)c1cc(O)c(O)c(O)c1` [Gallic acid, reference compound], the “EC50 DPPH” value in experiment [1] was 4.95 ± 0.24 µg/mL (≈ 29.1 µM). Further, the EC50 stood at 5.18 ± 0.34 µM in experiment [2] and 10.1 ± 0.39 µM in experiment [3] (isolated compounds). Besides, the “EC50 Superoxide anion” value in experiment [3] (extracts) was 5.21 ± 0.27 µg/mL (≈ 30.6 µM).
As for `CN(C)C(=N)N=C(N)N` [Metformin], the “FBG day 0” value in experiment [4] (day 0) is 25.66 ± 5.95 mmol/L. Also, the “FBG day 7” value in experiment [4] (day 7) worked out at 15.44±4.57c mmol/L. In experiment [4] (day 14), the “FBG day 14” value was found to be 17.38±5.31c mmol/L. Besides, the “GSP day 14” value in experiment [5] is 6.06±0.47 mmol/L and 6.06±0.47b mmol/L. For the same molecule, the “Kidney SOD” value in experiment [6] (kidney) was determined as 246.56±24.80b units/mg protein. The “Liver SOD” value in experiment [6] (liver) was determined as 145.03±13.79 units/mg protein. For the same molecule, in experiment [6] (serum), the “Serum SOD” value came out at 251.29±28.78b units/mL serum. In experiment [7] (kidney), the “Kidney CAT” value stood at 21.85±3.90b units/mg protein. The “Liver CAT” value in experiment [7] (liver) is given as 27.07±2.74 units/mg protein. Moreover, the “Serum CAT” value in experiment [7] (serum) came out at 50.53±17.87c units/mL serum. The “Kidney GSH-Px” value in experiment [8] (kidney) was determined as 240.36±40.31. In experiment [8] (liver), the “Liver GSH-Px” value is 275.78±21.02.

Usually EC50 stands for the concentration that produces a half-maximal response.
